Consider three compounds from patent publication US20200239530A1, “COMPOUNDS AND METHODS OF MODULATING PROTEIN DEGRADATION” (Vividion Therapeutics, Inc., priority 2017, published 2020).

What all share (assay): Cysteine liganding, probe competition
Type in all cases: binding

For assay [1], the target named is T1, DTL Denticleless protein homolog (Homo sapiens, UniProt Q9NZJ0).
T1 construct: Cells were resuspended in cold PBS on ice and sonicated with a probe sonicator to achieve lysis; endogenous in cells
In a few lines:
(§1)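 Lysates from probe-sonicated cells in PBS (5 mg/ml proteome) were exposed to compound for 1 hr at 25° C, then labelled with desthiobiotin iodoacetamide probe (10 mM stock) for 1 hr at 25° C. Probe-tagged peptides were streptavidin-enriched after trypsin digestion.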

For assay [2], the target named is T2, L3MBTL3 Lethal(3)malignant brain tumor-like protein 3 (Homo sapiens, UniProt Q96JM7).
T2 construct: Cells were resuspended in cold PBS on ice and sonicated with a probe sonicator to achieve lysis; endogenous in cells
The conditions noted are these: L3MBTL3 Res# 233, uniprot Q96JM7. In short, it runs like this: as §1

Assay [3] concerns the target T3, MYCBP2 E3 ubiquitin-protein ligase MYCBP2 (Homo sapiens, UniProt O75592).
T3 construct: Cells were resuspended in cold PBS on ice and sonicated with a probe sonicator to achieve lysis; endogenous in cells
In short, it runs like this:
as §1

Assay [4] addresses T4, ZC3HC1 Nuclear-interacting partner of ALK (Homo sapiens, UniProt Q86WB0).
T4 construct: Cells were resuspended in cold PBS on ice and sonicated with a probe sonicator to achieve lysis; endogenous in cells
The conditions noted are these: ZC3HC1 Res# 406, uniprot Q86WB0. In short, it runs like this: as §1

The target in assay [5] is T5, TNF receptor-associated factor 6 (TRAF6) (Homo sapiens, UniProt Q9Y4K3).
T5 construct: Cells were resuspended in cold PBS on ice and sonicated with a probe sonicator to achieve lysis; endogenous in cells
As to conditions: read-out: percent_inhibition. In a few lines:
as §1

The target in assay [6] is T6, INTS1 Integrator complex subunit 1 (Homo sapiens, UniProt Q8N201).
T6 construct: Cells were resuspended in cold PBS on ice and sonicated with a probe sonicator to achieve lysis; endogenous in cells
In a few lines:
as §1

Assay [7] concerns the target T7, AMMECR1L AMMECR1-like protein (Homo sapiens, UniProt Q6DCA0).
T7 construct: 200 μL of lysate containing 5 mg/ml proteome was treated with 2 μL of 100× compound stock; endogenous in cells
In a few lines:
as §1

T6 sequence (Q8N201 whole entry, one chain of several): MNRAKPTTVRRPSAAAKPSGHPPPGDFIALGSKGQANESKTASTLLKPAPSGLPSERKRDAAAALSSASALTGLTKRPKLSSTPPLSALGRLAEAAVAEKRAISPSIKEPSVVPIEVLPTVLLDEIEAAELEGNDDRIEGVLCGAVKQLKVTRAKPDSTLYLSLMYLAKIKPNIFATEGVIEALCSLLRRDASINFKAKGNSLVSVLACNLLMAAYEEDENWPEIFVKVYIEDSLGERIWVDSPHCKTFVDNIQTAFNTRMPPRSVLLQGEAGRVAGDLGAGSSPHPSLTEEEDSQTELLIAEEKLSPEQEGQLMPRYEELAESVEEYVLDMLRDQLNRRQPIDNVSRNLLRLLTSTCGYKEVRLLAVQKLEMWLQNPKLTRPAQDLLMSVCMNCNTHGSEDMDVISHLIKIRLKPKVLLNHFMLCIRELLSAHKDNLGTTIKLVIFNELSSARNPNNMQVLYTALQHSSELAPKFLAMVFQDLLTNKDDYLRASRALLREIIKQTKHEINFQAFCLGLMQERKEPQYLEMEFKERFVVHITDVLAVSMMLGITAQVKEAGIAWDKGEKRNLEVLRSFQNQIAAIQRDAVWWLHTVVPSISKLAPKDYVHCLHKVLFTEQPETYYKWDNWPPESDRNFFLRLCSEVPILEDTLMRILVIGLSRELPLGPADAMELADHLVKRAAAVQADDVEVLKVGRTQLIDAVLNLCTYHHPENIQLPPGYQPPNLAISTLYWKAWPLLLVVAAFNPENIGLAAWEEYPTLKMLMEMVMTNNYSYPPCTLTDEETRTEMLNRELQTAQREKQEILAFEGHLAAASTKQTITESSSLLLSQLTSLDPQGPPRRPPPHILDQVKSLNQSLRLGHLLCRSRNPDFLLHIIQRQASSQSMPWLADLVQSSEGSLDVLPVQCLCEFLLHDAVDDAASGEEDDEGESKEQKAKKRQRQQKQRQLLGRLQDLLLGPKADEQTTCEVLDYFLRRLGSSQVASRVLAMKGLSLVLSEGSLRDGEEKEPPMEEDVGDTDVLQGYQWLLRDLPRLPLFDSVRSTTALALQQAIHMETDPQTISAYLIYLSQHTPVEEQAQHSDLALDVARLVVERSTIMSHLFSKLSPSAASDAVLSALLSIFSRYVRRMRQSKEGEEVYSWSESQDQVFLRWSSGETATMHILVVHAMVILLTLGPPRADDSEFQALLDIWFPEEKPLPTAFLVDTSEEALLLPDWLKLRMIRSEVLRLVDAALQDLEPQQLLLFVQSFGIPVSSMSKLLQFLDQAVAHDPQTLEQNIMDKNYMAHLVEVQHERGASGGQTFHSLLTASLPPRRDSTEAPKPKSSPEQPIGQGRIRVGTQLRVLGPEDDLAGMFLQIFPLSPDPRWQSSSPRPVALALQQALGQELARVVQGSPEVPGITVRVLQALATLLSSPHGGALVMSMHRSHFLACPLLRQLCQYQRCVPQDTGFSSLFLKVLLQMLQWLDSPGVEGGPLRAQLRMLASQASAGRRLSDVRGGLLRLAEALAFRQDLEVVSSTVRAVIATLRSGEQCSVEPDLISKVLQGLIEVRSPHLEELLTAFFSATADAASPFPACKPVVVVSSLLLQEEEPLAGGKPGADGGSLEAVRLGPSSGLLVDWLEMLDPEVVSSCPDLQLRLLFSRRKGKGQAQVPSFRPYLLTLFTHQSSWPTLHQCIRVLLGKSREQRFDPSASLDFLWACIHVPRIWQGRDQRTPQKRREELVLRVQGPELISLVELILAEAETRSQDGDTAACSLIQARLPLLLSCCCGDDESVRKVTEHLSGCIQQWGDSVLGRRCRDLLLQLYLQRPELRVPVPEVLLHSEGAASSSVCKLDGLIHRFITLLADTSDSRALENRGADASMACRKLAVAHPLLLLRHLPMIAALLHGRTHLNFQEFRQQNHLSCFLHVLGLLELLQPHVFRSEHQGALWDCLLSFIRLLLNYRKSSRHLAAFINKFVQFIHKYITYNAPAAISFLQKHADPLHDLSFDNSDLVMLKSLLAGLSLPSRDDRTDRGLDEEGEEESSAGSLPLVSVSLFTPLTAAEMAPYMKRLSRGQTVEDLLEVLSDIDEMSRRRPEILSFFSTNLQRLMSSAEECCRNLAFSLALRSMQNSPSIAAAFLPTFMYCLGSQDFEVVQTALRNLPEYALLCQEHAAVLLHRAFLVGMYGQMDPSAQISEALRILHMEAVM
T7 sequence (Q6DCA0 whole entry): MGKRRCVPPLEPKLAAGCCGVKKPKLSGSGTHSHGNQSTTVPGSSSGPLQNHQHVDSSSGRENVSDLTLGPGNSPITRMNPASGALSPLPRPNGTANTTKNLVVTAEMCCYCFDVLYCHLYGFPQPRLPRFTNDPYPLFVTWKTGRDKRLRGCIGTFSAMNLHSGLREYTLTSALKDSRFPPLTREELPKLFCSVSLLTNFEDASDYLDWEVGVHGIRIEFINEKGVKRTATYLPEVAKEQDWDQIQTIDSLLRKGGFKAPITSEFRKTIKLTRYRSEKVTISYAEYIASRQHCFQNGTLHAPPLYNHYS
T1 sequence (Q9NZJ0 whole entry): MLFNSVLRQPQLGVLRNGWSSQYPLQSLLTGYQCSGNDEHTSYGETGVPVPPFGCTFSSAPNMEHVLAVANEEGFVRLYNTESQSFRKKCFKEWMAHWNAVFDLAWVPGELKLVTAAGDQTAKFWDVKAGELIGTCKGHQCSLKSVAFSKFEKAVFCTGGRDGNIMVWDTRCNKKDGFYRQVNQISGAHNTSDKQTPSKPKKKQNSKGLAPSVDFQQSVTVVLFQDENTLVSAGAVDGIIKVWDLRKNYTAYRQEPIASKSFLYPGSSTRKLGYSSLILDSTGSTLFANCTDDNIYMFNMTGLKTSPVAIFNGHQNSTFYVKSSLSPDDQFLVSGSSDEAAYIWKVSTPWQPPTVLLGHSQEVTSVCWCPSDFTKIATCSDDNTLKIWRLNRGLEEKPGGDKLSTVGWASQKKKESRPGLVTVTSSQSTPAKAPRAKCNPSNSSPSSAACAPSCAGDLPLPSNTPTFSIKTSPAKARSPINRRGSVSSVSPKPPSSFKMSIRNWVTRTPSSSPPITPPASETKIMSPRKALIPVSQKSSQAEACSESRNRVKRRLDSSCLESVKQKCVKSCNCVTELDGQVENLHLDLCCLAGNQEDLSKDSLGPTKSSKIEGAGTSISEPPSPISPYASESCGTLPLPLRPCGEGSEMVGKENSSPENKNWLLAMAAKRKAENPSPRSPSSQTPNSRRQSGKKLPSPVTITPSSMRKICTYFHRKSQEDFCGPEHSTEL
T5 sequence (Q9Y4K3 whole entry): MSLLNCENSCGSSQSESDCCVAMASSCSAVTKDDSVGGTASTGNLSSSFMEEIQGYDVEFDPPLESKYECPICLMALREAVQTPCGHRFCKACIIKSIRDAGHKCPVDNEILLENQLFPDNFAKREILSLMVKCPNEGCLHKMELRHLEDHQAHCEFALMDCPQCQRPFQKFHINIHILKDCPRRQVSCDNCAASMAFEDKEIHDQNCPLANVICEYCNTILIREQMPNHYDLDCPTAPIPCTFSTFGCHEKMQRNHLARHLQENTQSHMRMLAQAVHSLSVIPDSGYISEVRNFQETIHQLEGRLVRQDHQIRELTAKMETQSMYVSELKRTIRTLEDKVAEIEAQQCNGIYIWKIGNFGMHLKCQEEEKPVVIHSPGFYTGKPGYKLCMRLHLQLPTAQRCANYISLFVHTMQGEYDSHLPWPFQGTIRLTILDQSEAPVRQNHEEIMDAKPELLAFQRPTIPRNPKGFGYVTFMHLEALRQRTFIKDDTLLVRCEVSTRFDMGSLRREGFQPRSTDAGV
T2 sequence (Q96JM7 whole entry): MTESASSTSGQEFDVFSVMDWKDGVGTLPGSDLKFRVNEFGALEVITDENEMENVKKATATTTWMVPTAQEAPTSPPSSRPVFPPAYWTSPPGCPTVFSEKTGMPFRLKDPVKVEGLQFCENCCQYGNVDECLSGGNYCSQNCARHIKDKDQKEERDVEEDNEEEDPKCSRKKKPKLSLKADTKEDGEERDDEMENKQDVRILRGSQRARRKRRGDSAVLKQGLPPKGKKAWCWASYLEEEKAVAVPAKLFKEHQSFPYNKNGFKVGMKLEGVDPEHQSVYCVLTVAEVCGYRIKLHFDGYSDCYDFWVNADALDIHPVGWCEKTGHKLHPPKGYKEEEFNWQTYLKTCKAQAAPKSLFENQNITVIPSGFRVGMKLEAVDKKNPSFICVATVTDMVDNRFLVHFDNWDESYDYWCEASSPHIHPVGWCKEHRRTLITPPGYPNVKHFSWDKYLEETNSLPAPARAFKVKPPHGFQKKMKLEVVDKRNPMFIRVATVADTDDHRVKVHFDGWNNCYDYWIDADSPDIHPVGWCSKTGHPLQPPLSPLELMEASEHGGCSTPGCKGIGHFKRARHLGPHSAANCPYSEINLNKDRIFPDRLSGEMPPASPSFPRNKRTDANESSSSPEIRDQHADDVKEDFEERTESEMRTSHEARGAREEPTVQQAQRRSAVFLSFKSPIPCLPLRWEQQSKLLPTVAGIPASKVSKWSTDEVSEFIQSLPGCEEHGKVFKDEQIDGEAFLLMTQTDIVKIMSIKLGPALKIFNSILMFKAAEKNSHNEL
T4 sequence (Q86WB0 whole entry): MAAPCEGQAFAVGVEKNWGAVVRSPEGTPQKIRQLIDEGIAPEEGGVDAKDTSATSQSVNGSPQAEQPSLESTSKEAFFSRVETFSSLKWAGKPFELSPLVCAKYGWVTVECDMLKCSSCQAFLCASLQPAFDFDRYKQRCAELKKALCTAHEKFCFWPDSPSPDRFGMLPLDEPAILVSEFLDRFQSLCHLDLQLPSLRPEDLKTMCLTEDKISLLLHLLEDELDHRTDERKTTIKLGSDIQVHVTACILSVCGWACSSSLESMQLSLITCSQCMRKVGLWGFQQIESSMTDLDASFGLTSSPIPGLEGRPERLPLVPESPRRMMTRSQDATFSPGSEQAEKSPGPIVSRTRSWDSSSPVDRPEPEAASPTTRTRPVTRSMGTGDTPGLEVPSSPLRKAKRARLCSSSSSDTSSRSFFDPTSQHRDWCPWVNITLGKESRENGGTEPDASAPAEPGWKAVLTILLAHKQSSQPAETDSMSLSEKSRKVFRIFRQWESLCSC

As to `COc1ccc2c(c1)CCCN2C(=O)CCl` [KB02], the Liganded result is reported as “YES” in assay [1] (DTL Res# 136, uniprot Q9NZJ0); “YES” in assay [1] (DTL Res# 141, uniprot Q9NZJ0); “YES” in assay [2]; “YES” in assay [3] (MYCBP2 Res# 1131, uniprot O75592); “YES” in assay [3] (MYCBP2 Res# 3152, uniprot O75592); “YES” in assay [4].

Consider `C=CC(=O)N(c1ccccc1)c1ccc(Br)cc1` [KB05], for which the inhibition at 500 µM in assay [5] is 31%.

Take `O=C(CCl)Nc1cc(C(F)(F)F)cc(C(F)(F)F)c1` [KBO3]: the Liganded entry in assay [6] (INTS1 Res# 1534, uniprot Q8N201) is listed as “YES”. In assay [6] (uniprot Q8N201), the “100 Max” value came to 51.25, the 100 ave is listed as 36.495, the “500 Max” value amounted to 77.65 and the 500 ave was found to be 70.05. Further, the Liganded entry in assay [7] (AMMECR1L Res# 153, uniprot Q6DCA0) was “YES”. In assay [7] (uniprot Q6DCA0), the “100 Max” value came to 91.46, the 100 ave is on record as 91.46, the “500 Max” value was found to be 85.74 and the 500 ave turned out to be 85.74.
